Reference: article PMC10541411 (Nature Communications, 2023)

Assays:
53BP1^TT = target: T1, 53BP1^TT (Homo sapiens, UniProt Q12888); experiment: NMR 15N relaxation measurements (R1, R2, NOE); conditions: 1 mM 15N-labeled 53BP1TT, saturating amounts of small molecule
T1 construct: The tandem Tudor domain of 53BP1 (53BP1^TT, residues 1481–1603) was purified as previously described; made in house; host or cells: E. coli (only for the SAXS sample)
Procedure: The NMR relaxation measurements were carried out with 1 mM ^15N-labeled 53BP1^TT, 53BP1^TT-PN, and 53BP1^TT in the presence of saturating amounts of UNC3474 and UNC1118 in 25 mM sodium phosphate, pH 7.0, 100 mM NaCl, 1.5 mM NaN3, 0.3 mM DSS, 90% H2O/10% D2O, using standard experiments[58],[59]. The longitudinal and transverse ^15N relaxation rates R1 and R2 were determined using 12 and 14 relaxation delay times of 0.1–2 s and 4–120 ms, respectively. The first data point of each set of measurements was repeated for error assessment. The ^15N-{^1H} nuclear Overhauser ratios were obtained from a reference experiment without proton irradiation and a steady-state experiment with proton irradiation for 3 s.

[1] = target: T2, 53BP1^TT (tandem Tudor domain of 53BP1, residues 1481–1603) (Homo sapiens, UniProt Q12888); experiment: Isothermal titration calorimetry (ITC) of small molecules with 53BP1TT; type: binding; conditions: 25 °C, 50 mM Tris-HCl pH 7.5, 50 mM NaCl, one-site model; read-out: Kd (apparent, ITC)
T2 construct: The tandem Tudor domain of 53BP1 (53BP1^TT, residues 1481–1603) was purified as previously described; made in house; host or cells: E. coli (only for the SAXS sample)
Procedure: The ITC measurements were performed at 25 °C using a MicroCal iTC200 calorimeter. 53BP1^TT and the small molecules (UNC2991, UNC3351, UNC3474) were in 50 mM Tris-HCl, pH 7.5, 50 mM NaCl. In a typical run, 53BP1^TT was in the reaction cell at a concentration of 150 to 160 μM while the small molecule, in the titration syringe at a concentration of 0.8–2 mM, was delivered as 2 μL injections every 3 min. The titrations were paired with control experiments for heat of dilution. The titration of 53BP1^TT with UNC1118 was performed using a MicroCal VP-ITC calorimeter. ITC data were fitted to a one-site model using a Levenberg-Marquardt non-linear regression algorithm programmed in the Origin 7.0 software.
Supplementary Figure 1 | Interaction of 53BP1TT with small molecules probed using isothermal titration calorimetry (ITC) and small-angle X-ray scattering (SAXS). a, ITC of the interaction of UNC2991, UNC3351 and UNC3474 with 53BP1TT. Raw titration data and integrated heat measurements are shown. Indicated apparent Kds with associated standard deviations were determined by nonlinear least-squares analysis.
1.33 and 2 mg/mL with an exposure time of 0.5 s, without and with 10-fold molar excess of UNC1118 or UNC3474. The error bars in the scattering curves were generated using PRIMUS in the data analysis software ATSAS 2.4.2 and represent mean ± standard deviation calculated from signal intensity scaling and merging for the three different 53BP1TT concentrations. The Guinier plots, dimensionless Kratky plots and pair distance distribution functions derived from the SAXS data are shown. Also shown are the crystal structures of 53BP1TT and 53BP1TT-UNC3474 overlaid to the corresponding SAXS-based ab initio molecular envelopes generated using GASBOR 2.3i. c, Interaction of UNC1118 with 53BP1TT characterized using ITC (left) and NMR spectroscopy (right).
For the ITC, raw titration data and integrated heat measurements are shown. The indicated Kd with associated standard deviation was determined by nonlinear least-squares analysis.
(1 picture or pasted object on this page, not shown here)

[2] = target: T3, 53BP1^TT-CC (E1549C/E1567C) (Homo sapiens, UniProt Q12888, E1549C/E1567C); experiment: 1H-15N HSQC NMR of 15N-labeled 53BP1TT-CC with UNC3474, with and without DTT; type: binding
T3 construct: The tandem Tudor domain of 53BP1 (53BP1^TT, residues 1481–1603) was purified as previously described; made in house
Procedure: Fig. 4 Engineering of a disulfide-crosslinked 53BP1^TT homodimer that binds UNC3474. a Sedimentation velocity analysis of 53BP1^TT-CC (20 μM) in the presence and absence of 10 mM DTT. b Crystal structure of 53BP1^TT-CC (blue and orange) showing the two disulfide bridges overlaid to the crystal structure of 53BP1^TT-UNC3474 (UNC3474 omitted) in gray. c Effects of adding 2 mM DTT and UNC3474 on the ^1H-^15N HSQC spectrum of ^15N-labeled 53BP1^TT-CC (1:1 UNC3474:53BP1^TT-CC molar ratio).
All NMR data were collected at 25 °C on a 700 MHz Bruker Avance III spectrometer equipped with a cryoprobe. Data were processed and analyzed with NMRPipe[54] and NMRViewJ[55],[56].

53BP1^TT WT = 53BP1^TT WT (Homo sapiens, UniProt Q12888); experiment: Small angle X-ray scattering (SAXS); set-up: residues 1484-1603; made in house; host or cells: E. coli
Procedure: SAXS measurements were performed at 10 °C and different concentrations (0.67, 1.33 and 2 mg/mL) of 53BP1^TT WT, free and in complex with 10-fold molar excess of UNC3474 or UNC1118, in 25 mM sodium phosphate, pH 7.5, 15 mM NaCl, as well as on control samples containing only the small molecule in the same buffer. SAXS data were collected at the Lawrence Berkeley National Laboratory SYBILS beamline 12.3.1 and analyzed using programs from the SAXS data analysis software ATSAS (version 2.4.2)[63],[64] including PRIMUS, GNOM, AUTOPOROD, GASBOR and CRYSOL. PRIMUS (version 3.0) was used for initial data processing. Radii of gyration (Rg) were calculated using the Guinier approximation. Distance distribution functions P(r) and maximum particle dimensions were computed using GNOM. Molecular volumes and weights were estimated using AUTOPOROD. Ab initio reconstructions of molecular envelopes were done using GASBOR 2.3i. CRYSOL was used to back calculate the scattering curves and determine the goodness of fit.
Supplementary Table 1 | SAXS reporting data.
Organism Homo Sapiens Homo Sapiens Homo Sapiens
Source E. coli E. coli E. coli
Solvent composition 25 mM sodium 25 mM sodium 25 mM sodium
phosphate, pH 7.5, 15 phosphate, pH 7.5, 15 phosphate, pH 7.5, 15
SAXS data collection parameters
Source SIBYLS beamline 12.3.1 at the Advanced Light Source […]
Beam geometry (size, sample-to-detector distance) 0.1 x 0.1 mm, 1.5 m
Method for monitoring radiation damage Varied exposure lengths were compared against one another
Exposure time, number of exposures 0.5 s, 1 s, 2 s exposures for each concentration
Sample configuration A 1 mm sample was placed between two mica windows in a
Software employed for SAXS data reduction, analysis and interpretation
SAS data reduction Subtraction using established programs at SIBYLS beamline 12.3.1
Basic analyses and merging of curves. PRIMUS from ATSAS 2.4.2
Shape/bead modeling GASBOR 2.3i

53BP1^TT WT, sequence (Q12888 1484-1603): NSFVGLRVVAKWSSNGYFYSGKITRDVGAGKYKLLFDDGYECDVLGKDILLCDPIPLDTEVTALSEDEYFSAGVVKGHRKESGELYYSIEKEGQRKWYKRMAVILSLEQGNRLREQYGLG
T3 sequence (Q12888 1481-1603 E1549C/E1567C): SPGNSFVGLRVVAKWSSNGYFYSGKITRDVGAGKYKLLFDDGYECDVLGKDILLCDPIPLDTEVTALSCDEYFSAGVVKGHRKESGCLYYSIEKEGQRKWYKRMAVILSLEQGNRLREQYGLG
T1 sequence (Q12888 1481-1603): as the sequence (Q12888 1481-1603 E1549C/E1567C) above, with C69E, C87E counted along it
T2 sequence (Q12888 1481-1603): as the sequence (Q12888 1481-1603 E1549C/E1567C) above, with C69E, C87E counted along it

## CC(C)c1cccc(C(=O)NCCCNC(C)(C)C)c1 [UNC3474]
53BP1^TT
  effect on 15N relaxation rates of 53BP1TT: increase in R2 relaxation rates
[1]
  Kd: 1000 ± 300 nM
[2]; with DTT (2 mM)
  affinity of reduced monomeric 53BP1TT-CC: no affinity
[2]; without DTT, 1:1 UNC3474:53BP1TT-CC molar ratio
  effect on 1H-15N HSQC spectra of 53BP1TT-CC (disulfide-crosslinked dimer): splitting of several NMR signals
53BP1^TT WT; 10-fold molar excess of ligand, free 53BP1TT 18.85 ± 0.069
  Rg, P(r) analysis, of 53BP1TT complex: 20.18 ± 0.038 Å
53BP1^TT WT; 10-fold molar excess of ligand, free 53BP1TT 19.1 ± 0.2
  Rg, Guinier analysis, of 53BP1TT complex: 20.1 ± 0.1 Å
53BP1^TT WT; 10-fold molar excess of ligand, free 53BP1TT 62.5
  dmax, P(r) analysis, of 53BP1TT complex: 69.4 Å
53BP1^TT WT; 10-fold molar excess of ligand, free 53BP1TT 21822
  Porod volume of 53BP1TT complex: 37692 Å3
53BP1^TT WT; 10-fold molar excess of small molecule, 10 °C
  changes in SAXS data upon complex formation: agreed well with 53BP1^TT homodimerization
